From US12275731B2, “Azaindole inhibitors of wild-type and mutant forms of LRRK2” (DANA-FARBER CANCER INSTITUTE, INC., priority 2018, dated 2025) come the findings set out here.

Test in all cases: KinomeScan profiling
Assay type in all cases: binding

One experiment deals with EGFR(T790M) (Homo sapiens, UniProt P00533, T790M). The conditions noted are these: read-out: % control. In short, it runs like this:
(§1)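 Single-point competition binding screen: 1 μM, DMSO, 468 kinases. Results reported as % control from RLU, normalised to DMSO and positive-control wells. Activity threshold: <35% control.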

The target of another experiment is T1, SRC (Homo sapiens, UniProt P12931).
T1 construct: purchased KinomeScan® (panel service)
T1 sequence (P12931 whole entry): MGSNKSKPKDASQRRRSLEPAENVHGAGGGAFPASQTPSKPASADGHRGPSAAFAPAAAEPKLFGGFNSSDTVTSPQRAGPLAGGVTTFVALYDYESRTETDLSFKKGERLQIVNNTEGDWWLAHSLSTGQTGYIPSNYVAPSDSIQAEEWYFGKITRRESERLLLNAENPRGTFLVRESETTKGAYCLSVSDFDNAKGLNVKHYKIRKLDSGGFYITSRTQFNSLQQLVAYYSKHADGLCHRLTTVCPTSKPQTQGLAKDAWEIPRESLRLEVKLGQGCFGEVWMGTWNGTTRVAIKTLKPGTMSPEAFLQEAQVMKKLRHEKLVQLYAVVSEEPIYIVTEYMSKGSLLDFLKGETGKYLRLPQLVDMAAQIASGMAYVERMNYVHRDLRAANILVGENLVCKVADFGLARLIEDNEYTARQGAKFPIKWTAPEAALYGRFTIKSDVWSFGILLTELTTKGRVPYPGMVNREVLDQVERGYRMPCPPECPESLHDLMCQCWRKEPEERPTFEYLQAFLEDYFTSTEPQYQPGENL
As to conditions: read-out: % control. In short, it runs like this: as §1

The next experiment has as its target CAMK2A (Homo sapiens, UniProt Q9UQM7). The conditions noted are these: read-out: % control. In short, it runs like this: as §1
In a further experiment the target is T2, STK36 (Homo sapiens, UniProt Q9NRP7).
T2 construct: purchased KinomeScan® (panel service)
T2 sequence (Q9NRP7 1-1315): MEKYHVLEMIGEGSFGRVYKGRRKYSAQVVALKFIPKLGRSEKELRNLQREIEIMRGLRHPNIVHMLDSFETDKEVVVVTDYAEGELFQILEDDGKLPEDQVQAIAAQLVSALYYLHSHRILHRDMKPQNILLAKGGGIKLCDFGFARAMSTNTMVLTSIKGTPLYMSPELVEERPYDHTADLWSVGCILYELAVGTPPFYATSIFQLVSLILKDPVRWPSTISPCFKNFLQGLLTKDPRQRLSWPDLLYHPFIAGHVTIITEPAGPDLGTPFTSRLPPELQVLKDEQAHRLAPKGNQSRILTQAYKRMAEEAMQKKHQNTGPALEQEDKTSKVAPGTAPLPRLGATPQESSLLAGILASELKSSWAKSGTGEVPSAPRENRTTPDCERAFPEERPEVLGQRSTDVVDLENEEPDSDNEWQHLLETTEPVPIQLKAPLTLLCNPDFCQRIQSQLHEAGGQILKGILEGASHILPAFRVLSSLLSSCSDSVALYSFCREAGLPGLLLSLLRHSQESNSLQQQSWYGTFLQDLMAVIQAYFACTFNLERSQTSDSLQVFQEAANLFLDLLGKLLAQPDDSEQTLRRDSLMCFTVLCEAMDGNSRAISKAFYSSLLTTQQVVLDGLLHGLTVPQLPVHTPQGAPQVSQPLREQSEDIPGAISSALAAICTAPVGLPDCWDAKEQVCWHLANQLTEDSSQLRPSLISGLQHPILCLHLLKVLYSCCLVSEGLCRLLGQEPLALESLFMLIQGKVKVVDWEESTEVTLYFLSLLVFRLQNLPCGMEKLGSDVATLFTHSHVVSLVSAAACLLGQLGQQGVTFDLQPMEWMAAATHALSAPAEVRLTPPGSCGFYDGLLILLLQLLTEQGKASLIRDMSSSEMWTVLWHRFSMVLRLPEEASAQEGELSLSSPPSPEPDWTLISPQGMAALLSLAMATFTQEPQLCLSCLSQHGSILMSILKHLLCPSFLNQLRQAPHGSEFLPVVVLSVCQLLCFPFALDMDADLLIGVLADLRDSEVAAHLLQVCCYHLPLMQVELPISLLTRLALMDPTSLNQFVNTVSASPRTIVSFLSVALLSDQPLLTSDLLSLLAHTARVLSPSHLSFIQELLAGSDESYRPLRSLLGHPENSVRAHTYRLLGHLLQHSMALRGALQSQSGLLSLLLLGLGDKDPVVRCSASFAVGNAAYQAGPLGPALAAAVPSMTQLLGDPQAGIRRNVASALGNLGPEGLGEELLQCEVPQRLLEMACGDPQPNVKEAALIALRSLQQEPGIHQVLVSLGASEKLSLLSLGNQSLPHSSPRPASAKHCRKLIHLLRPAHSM
As to conditions: STK36, 1 μM; read-out: % control. The gist of the method: as §1

A further experiment deals with VRK2 (Homo sapiens, UniProt Q86Y07). The conditions noted are these: VRK2, 1 μM; read-out: % control. The gist of the method: as §1
Chain of VRK2 (Q86Y07 whole entry): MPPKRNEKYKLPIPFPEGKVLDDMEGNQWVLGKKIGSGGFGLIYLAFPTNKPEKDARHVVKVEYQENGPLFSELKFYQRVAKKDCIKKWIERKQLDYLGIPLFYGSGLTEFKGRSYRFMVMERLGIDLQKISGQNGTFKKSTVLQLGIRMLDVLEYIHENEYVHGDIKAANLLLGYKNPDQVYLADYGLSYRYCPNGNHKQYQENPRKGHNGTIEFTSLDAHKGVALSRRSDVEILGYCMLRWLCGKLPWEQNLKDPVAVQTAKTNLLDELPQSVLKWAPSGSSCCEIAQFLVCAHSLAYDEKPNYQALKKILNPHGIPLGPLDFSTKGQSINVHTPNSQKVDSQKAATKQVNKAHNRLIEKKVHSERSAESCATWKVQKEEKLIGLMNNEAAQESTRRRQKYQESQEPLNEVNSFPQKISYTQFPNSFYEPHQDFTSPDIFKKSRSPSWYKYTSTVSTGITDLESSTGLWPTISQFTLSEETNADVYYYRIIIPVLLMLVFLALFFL
In the next experiment the target is T3, TBK1 (Homo sapiens, UniProt Q9UHD2).
T3 sequence (Q9UHD2 1-729): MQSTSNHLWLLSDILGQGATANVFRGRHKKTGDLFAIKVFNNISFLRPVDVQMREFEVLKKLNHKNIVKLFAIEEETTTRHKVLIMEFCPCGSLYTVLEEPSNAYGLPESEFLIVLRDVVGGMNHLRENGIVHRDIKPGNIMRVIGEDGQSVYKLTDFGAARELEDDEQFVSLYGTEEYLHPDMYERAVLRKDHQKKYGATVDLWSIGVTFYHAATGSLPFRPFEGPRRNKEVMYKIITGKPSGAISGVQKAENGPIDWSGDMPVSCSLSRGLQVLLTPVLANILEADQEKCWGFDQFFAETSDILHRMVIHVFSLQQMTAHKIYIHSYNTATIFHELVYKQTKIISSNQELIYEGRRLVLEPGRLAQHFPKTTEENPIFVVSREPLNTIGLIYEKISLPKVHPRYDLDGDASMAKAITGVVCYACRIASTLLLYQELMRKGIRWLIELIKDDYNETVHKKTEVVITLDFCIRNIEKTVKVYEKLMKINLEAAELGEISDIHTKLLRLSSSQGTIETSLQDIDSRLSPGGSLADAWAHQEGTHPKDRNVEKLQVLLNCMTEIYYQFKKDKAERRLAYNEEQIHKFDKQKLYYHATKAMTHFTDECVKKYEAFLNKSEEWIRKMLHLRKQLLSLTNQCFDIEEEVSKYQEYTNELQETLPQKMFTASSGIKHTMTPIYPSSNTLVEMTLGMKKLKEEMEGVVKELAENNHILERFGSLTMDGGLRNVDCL
The conditions noted are these: TBK1, 1 μM; read-out: % control. In short, it runs like this:
as §1

Chain of EGFR(T790M) (P00533 25-1210 T790M): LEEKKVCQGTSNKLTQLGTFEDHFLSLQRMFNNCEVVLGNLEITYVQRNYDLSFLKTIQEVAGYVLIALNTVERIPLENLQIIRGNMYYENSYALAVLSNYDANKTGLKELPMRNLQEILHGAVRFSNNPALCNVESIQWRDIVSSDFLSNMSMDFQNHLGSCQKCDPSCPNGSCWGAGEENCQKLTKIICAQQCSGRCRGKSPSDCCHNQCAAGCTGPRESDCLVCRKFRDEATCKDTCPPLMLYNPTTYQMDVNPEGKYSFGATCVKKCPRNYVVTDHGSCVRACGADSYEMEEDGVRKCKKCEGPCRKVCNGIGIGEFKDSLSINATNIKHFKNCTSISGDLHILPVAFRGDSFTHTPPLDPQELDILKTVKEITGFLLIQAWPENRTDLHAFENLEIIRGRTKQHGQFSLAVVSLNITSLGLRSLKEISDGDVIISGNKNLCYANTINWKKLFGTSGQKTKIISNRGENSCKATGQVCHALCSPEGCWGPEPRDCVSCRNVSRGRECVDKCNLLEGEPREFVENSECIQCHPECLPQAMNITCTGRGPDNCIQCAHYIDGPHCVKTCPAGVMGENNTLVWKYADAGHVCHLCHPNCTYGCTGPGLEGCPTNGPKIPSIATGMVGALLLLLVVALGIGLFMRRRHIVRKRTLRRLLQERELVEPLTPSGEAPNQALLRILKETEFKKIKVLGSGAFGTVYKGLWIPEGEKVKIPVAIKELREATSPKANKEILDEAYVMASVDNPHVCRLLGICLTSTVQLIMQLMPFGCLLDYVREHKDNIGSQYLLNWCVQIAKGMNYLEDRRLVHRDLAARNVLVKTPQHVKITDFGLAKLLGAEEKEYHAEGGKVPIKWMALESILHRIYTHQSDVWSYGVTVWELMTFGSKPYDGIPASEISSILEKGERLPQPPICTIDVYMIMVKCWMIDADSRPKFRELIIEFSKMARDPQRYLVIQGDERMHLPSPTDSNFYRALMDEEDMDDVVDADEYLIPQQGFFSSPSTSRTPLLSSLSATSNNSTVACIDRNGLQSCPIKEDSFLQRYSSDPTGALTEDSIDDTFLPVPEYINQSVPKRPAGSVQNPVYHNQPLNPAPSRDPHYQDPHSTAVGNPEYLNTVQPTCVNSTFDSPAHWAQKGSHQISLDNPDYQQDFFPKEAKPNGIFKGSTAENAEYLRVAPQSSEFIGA
Chain of CAMK2A (Q9UQM7 whole entry): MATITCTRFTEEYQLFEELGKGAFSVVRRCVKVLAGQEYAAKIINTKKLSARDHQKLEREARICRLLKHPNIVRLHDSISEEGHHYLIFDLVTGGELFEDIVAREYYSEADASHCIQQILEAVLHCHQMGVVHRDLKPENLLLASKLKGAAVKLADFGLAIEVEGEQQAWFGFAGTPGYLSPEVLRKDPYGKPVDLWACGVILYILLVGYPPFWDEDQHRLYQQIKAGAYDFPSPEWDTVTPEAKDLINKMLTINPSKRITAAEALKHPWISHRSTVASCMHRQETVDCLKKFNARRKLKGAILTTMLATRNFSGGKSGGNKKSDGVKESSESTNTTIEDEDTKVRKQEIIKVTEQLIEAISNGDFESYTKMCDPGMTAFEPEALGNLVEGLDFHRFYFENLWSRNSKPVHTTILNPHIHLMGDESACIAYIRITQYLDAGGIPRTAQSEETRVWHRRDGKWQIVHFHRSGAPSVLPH

Take `CNc1c(-c2ccc(C(=O)N3CCC(N4CCOCC4)CC3)cc2)cnc2[nH]cc(Cl)c12` [Compound 96, (4-(3-chloro-4-(methylamino)-1H-pyrrolo[2,3-b]pyridin-5-yl)phenyl)(4-morpholinopiperidin-1-yl)methanone]: the remaining binding at 1 µM on EGFR(T790M) stood at 83%; on SRC, 100%; at CAMK2A, 96%; at STK36, 99%; on VRK2, 79%; on TBK1 it was 91%.

Consider `O=C(c1ccc(-c2cnc3[nH]cc(Cl)c3c2NC2CCCC2)cc1)N1CCC(N2CCOCC2)CC1` [Compound 101, (4-(3-chloro-4-(cyclopentylamino)-1H-pyrrolo[2,3-b]pyridin-5-yl)phenyl)(4-morpholinopiperidin-1-yl)methanone], for which the remaining binding at 1 µM was 100% at EGFR(T790M); 100% at SRC; 92% on CAMK2A; 96% at STK36; 100% at VRK2; 90% on TBK1.

On to `CNc1c(-c2cnn([C@H]3CCN(C(C)=O)C[C@@H]3F)c2)cnc2[nH]cc(Cl)c12` [Compound 77, 1-((3S,4S)-4-(4-(3-chloro-4-(methylamino)-1H-pyrrolo[2,3-b]pyridin-5-yl)-1H-pyrazol-1-yl)-3-fluoropiperidin-1-yl)ethan-1-one], for which the remaining binding at 1 µM at EGFR(T790M) worked out at 93%; on SRC, 99%; at CAMK2A it was 100%; on STK36 it was 100%; on VRK2, 66%; on TBK1, 57%.
